Reference: patent US9834554B2, “BTK inhibitors” (MERCK SHARP & DOHME CORP., priority 2013, dated 2017)

biological target: BTK enzyme (recombinant full-length BTK, hBTK) (Homo sapiens (Human), UniProt Q06187); assay: Btk enzyme activity assay, LANCE TR-FRET; settings: read-out: BTK binding IC50; 50 pM hBTK, 2 μM biotin-A5-peptide, 25 μM ATP; 60 minute compound & enzyme incubation
Sequence (Q06187 whole entry): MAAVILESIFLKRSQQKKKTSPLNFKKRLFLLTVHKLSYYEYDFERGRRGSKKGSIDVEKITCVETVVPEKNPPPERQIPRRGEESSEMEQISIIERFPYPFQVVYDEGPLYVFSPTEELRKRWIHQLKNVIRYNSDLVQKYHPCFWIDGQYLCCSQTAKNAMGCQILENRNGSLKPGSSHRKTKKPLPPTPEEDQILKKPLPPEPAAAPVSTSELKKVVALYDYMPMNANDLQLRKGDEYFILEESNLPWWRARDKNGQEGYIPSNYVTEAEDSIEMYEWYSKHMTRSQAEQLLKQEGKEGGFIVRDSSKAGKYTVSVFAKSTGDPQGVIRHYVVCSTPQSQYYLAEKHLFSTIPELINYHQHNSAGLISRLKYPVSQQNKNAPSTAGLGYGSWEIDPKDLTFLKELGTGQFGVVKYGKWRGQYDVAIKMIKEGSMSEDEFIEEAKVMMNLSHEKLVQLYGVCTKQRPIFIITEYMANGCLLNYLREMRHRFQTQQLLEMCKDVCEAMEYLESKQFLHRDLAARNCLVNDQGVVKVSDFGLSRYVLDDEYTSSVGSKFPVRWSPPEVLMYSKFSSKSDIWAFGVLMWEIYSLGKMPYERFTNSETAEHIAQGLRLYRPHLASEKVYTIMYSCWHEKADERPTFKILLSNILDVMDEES
Protocol: Also BTK enzymatic activity was determined with the LANCE (Lanthanide Chelate Excite) TR-FRET (Time-resolved fluorescence resonance energy transfer) assay. […] Phosphorylation reactions were allowed to proceed for 120 minutes. […] After 60 minutes incubation with detection reagents, reaction plates were read on a PerkinElmer EnVision plate reader using standard TR-FRET protocol. Briefly, excitation of donor molecules (Eu-chelate:anti-phospho-antibody) with a laser light source at 337 nm produces energy that can be transferred to Dylight-650 acceptor molecules if this donor:acceptor pair is within close proximity. Fluorescence intensity at both 665 nm (acceptor) and 615 nm (donor) are measured and a TR-FRET ratio calculated for each well (acceptor intensity/donor intensity).
Btk Enzyme Activity Assay Method
BTK enzymatic activity was determined with the LANCE (Lanthanide Chelate Excite) TR-FRET (Time-resolved fluorescence resonance energy transfer) assay. […] Phosphorylation reactions were allowed to proceed for 120 minutes. […] After 60 minutes incubation with detection reagents, reaction plates were read on a PerkinElmer EnVision plate reader using standard TR-FRET protocol. Briefly, excitation of donor molecules (Eu-chelate:anti-phospho-antibody) with a laser light source at 337 nm produces energy that can be transferred to Dylight-650 acceptor molecules if this donor:acceptor pair is within close proximity. Fluorescence intensity at both 665 nm (acceptor) and 615 nm (donor) are measured and a TR-FRET ratio calculated for each well (acceptor intensity/donor intensity).

| SMILES | IC50 |
| --- | --- |
| CC1(C(=O)N2CCO[C@@H](c3nn(-c4ccc(C(=O)Nc5cc(C(F)(F)F)ccn5)cc4)c4c(N)nccc34)C2)COC1 [Example 1, (R)-4-(7-amino-3-(4-(3-methyloxetane-3-carbonyl)morpholin-2-yl)-1H-pyrazolo[3,4-c]pyridin-1-yl)-N-(4-(trifluoromethyl)pyridin-2-yl)benzamide] | 2.2 nM |
| CC(=O)N1CCO[C@@H](c2nn(-c3ccc(C(=O)Nc4cc(C(F)(F)F)ccn4)cc3)c3c(N)nccc23)C1 [Example 2, 4-{3-[(2R)-4-acetylmorpholin-2-yl]-7-amino-1H-pyrazolo[3,4-c]pyridin-1-yl}-N-[4-(trifluoromethyl)pyridin-2-yl] benzamide] | 2.9 nM |
| CCC(=O)N1CCO[C@@H](c2nn(-c3ccc(C(=O)Nc4cc(C(F)(F)F)ccn4)cc3)c3c(N)nccc23)C1 [Example 3, 4-{7-amino-3-[(2R)-4-propanoylmorpholin-2-yl]-1H-pyrazolo[3,4-c]pyridin-1-yl}-N-[4-(trifluoromethyl)pyridin-2-yl] benzamide] | 1.8 nM |
| COCC(=O)N1CCO[C@@H](c2nn(-c3ccc(C(=O)Nc4cc(C(F)(F)F)ccn4)cc3)c3c(N)nccc23)C1 [Example 5, 4-{7-amino-3-[(2R)-4-(methoxyacetyl)morpholin-2-yl]-1H-pyrazolo[3,4-c]pyridin-1-yl}-N-[4-(trifluoromethyl)pyridin-2-yl]benzamide] | 3.7 nM |
| COc1ccnc(NC(=O)c2ccc(-n3nc([C@H]4CN(C(=O)C5(C)COC5)CCO4)c4ccnc(N)c43)cc2)c1 [Example 8, 4-(7-amino-3-{(2R)-4-[(3-methyloxetan-3-yl)carbonyl]morpholin-2-yl}-1H-pyrazolo[3,4-c]pyridin-1-yl)-N-(4-methoxypyridin-2-yl)benzamide] | 42.1 nM |
| Cc1n[nH]cc1C(=O)N1CCC[C@@H](c2nn(-c3ccc(C(=O)Nc4cc(C(F)(F)F)ccn4)cc3)c3c(N)nccc23)C1 [Example 10, 4-(7-amino-3-{(3R)-1-[(3-methyl-1H-pyrazol-4-yl)carbonyl]piperidin-3-yl}-1H-pyrazolo[3,4-c]pyridin-1-yl)-N-[4-(trifluoromethyl)pyridin-2-yl]benzamide] | 0.71 nM |
| CCC(=O)N1CCC[C@@H](c2nn(-c3ccc(C(=O)Nc4cc(C(F)(F)F)ccn4)cc3)c3c(N)nccc23)C1 [Example 11, 4-{7-amino-3-[(3R)-1-propanoylpiperidin-3-yl]-1H-pyrazolo[3,4-c]pyridin-1-yl}-N-[4-(trifluoromethyl)pyridin-2-yl]benzamide] | 0.57 nM |

Further compounds by falling IC50, results first:

| IC50 | SMILES |
| --- | --- |
| 46.5 nM | COCC(=O)Nc1nccc2c([C@H]3CN(C(=O)COC)CCO3)nn(-c3ccc(C(=O)Nc4cc(C(F)(F)F)ccn4)cc3)c12 [Example 4, 4-{7-[(methoxyacetyl)amino]-3-[(2R)-4-(methoxyacetyl)morpholin-2-yl]-1H-pyrazolo[3,4-c]pyridin-1-yl}-N-[4-(trifluoromethyl)pyridin-2-yl]benzamide] |
| 28.8 nM | COc1ccnc(NC(=O)c2ccc(-n3nc([C@H]4CN(C(C)=O)CCO4)c4ccnc(N)c43)cc2)c1 [Example 6, 4-{3-[(2R)-4-acetylmorpholin-2-yl]-7-amino-1H-pyrazolo[3,4-c]pyridin-1-yl}-N-(4-methoxypyridin-2-yl)benzamide] |
| 25.2 nM | COCC(=O)N1CCO[C@@H](c2nn(-c3ccc(C(=O)Nc4cc(OC)ccn4)cc3)c3c(N)nccc23)C1 [Example 7, 4-{7-amino-3-[(2R)-4-(methoxyacetyl)morpholin-2-yl]-1H-pyrazolo[3,4-c]pyridin-1-yl}-N-(4-methoxypyridin-2-yl)benzamide] |
| 0.47 nM | CC1(C(=O)N2CCC[C@@H](c3nn(-c4ccc(C(=O)Nc5cc(C(F)(F)F)ccn5)cc4)c4c(N)nccc34)C2)COC1 [Example 9, (R)-4-(7-amino-3-(1-(3-methyloxetane-3-carbonyl)piperidin-3-yl)-1H-pyrazolo[3,4-c]pyridin-1-yl)-N-(4-(trifluoromethyl)pyridin-2-yl)benzamide] |
